Results published in patent publication US12427146B2, “C-terminal SRC kinase inhibitors” (INVENTISBIO CO., LTD., priority 2018, dated 2025).

Tests used:
LCK protein = LCK protein (Homo sapiens (Human), UniProt P06239); assay: LCK Inhibition Assay; type: biochemical
Description: Test compound was dissolved in DMSO at 10 mM. 45 uL of compound was transfer into a 384-well compound source plate (LABCYTE cat #P-05525) and serially diluted at 1:3 ratio to create a 11-point dilutions. The same volume of DMSO was adopted as high control. 20 nL of these compounds DMSO dilutes were dispensed into a new 384-well assay plate by Echo 550. LCK protein (0.50 nM, Cama Biosciences, cat #08-170), florescent labeled substrate FLPeptide4 (2 μM, PerkinElmer, cat #760348) was prepared in kinase assay buffer (50 mM HEPES (pH 7.5), 10 mM MgCl2, 0.01% Brij-35, 2 mM DTT and 0.005 mg/ml BSA). 15 uL of kinase assay buffer containing LCK protein and substrate was transferred to assay plate and incubate at RT for 30 minutes. Kinase assay buffer supplemented with substrate peptides was employed as low control to monitor the background. 400 μM ATP was prepared in kinase assay buffer and 5 μL of ATP solution was added to each well to start the reaction. The assay plate was incubated at 25° C. for 90 minutes and the reaction was stopped by adding 40 μL of 0.5 M EDTA.
(§1) Phosphorylated fluorescent-tagged peptides were differentiated from non-phosphorylated peptides by separating using Caliper EZ Reader II and the detection was directly converted to conversion ratio.
(§2) For estimation of IC50, the % substrate conversion values are transformed to % Inhibition Ratio by applying the following equation: […]

CSK protein = CSK protein (Homo sapiens (Human), UniProt P41240); assay: CSK Inhibition Assay; type: biochemical
Description: Test compound was dissolved in DMSO at 10 mM. 45 uL of compound was transferred into a 384-well compound source plate (LABCYTE cat #P-05525) and serially diluted at 1:3 ratio to create a 11-point dilutions. The same volume of DMSO was adopted as high control. 20 nL of these compounds DMSO dilutes were dispensed into a new 384-well assay plate by Echo 550. […] 15 uL of kinase assay buffer containing CSK protein and substrate was transferred to assay plate and incubated at RT for 30 minutes. Kinase assay buffer supplemented with substrate peptides was employed as low control to monitor the background. 4 μM of ATP was prepared in kinase assay buffer and 5 μL of ATP solution was added to each well to start the reaction. The assay plate was incubated at 25° C. for 90 minutes and the reaction was stopped by adding 40 μL of 0.5 M EDTA.
as §1, §2

Sequence of LCK protein (P06239 whole entry): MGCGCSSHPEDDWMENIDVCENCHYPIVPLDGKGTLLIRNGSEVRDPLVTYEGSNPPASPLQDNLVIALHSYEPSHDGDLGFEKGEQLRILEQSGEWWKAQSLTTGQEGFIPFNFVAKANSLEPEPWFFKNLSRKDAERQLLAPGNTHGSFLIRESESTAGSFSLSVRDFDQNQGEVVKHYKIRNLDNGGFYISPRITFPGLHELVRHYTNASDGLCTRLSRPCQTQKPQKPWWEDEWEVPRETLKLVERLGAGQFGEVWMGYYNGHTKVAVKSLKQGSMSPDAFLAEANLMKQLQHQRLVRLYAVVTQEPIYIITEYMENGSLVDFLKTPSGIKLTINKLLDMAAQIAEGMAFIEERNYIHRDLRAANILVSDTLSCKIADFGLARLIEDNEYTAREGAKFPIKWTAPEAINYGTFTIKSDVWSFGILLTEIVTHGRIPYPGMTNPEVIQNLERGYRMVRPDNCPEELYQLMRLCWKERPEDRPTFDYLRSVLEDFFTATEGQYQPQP

Row | IC50 (LCK protein) [nM] | IC50 (CSK protein) [nM] | SMILES
1 | > 1000 | 9.4 | Nc1nccc(-c2sc(-c3cncc(F)c3)nc2-c2cccc(NS(=O)(=O)c3c(Cl)cccc3Cl)c2F)n1 [Compound 62]
2 | > 1000 | 20.6 | CNc1nccc(-c2sc(-c3cncnc3)nc2-c2cccc(NS(=O)(=O)c3c(F)cccc3F)c2F)n1 [Compound 63]
3 | > 1000 | 18.3 | CNc1nccc(-c2sc(-c3cncc(F)c3)nc2-c2cccc(NS(=O)(=O)c3c(F)cc(OC)cc3F)c2F)n1 [Compound 64]
4 | > 1000 | 14.9 | CNc1nccc(-c2sc(-c3ccc(C)nn3)nc2-c2cccc(NS(=O)(=O)c3c(F)ccc(C)c3F)c2F)n1 [Compound 65]
5 | > 1000 | 19.6 | O=S(=O)(Nc1cccc(-c2nc(-c3cncc(F)c3)sc2-c2ccnc(NCCO)n2)c1F)c1c(F)cccc1F [Compound 66]
6 | > 1000 | 617 | NCCNc1nccc(-c2sc(-c3cncc(F)c3)nc2-c2cccc(NS(=O)(=O)c3c(F)cccc3F)c2F)n1 [Compound 67]
7 | > 1000 | 16.2 | O=S(=O)(Nc1cccc(-c2nc(-c3cncc(F)c3)sc2-c2ccnc(NC3CC3)n2)c1F)c1c(F)cccc1F [Compound 68]
8 | > 1000 | 13.4 | CNc1nccc(-c2sc(-c3cnc(C)nc3)nc2-c2cccc(NS(=O)(=O)c3c(F)ccc(C)c3F)c2F)n1 [Compound 69]
9 | > 1000 | 92.3 | CNc1nccc(-c2sc(-c3ccc(F)cc3)nc2-c2cccc(NS(=O)(=O)c3c(F)ccc(C)c3F)c2F)n1 [Compound 70]
10 | > 1000 | 41.8 | CNc1nccc(-c2sc(-c3cccc(F)c3)nc2-c2cccc(NS(=O)(=O)c3c(F)ccc(C)c3F)c2F)n1 [Compound 71]
11 | > 1000 | 26.1 | CNc1nccc(-c2sc(-c3cncc(F)c3)nc2-c2cc(OC)cc(NS(=O)(=O)c3c(F)cccc3F)c2F)n1 [Compound 72]
12 | > 1000 | 14.8 | CNc1nccc(-c2sc(-c3cncnc3)nc2-c2cccc(NS(=O)(=O)c3c(F)ccc(C)c3F)c2F)n1 [Compound 73]
13 | > 1000 | 8.8 | CNc1nccc(-c2sc(-c3cncc(F)c3)nc2-c2cccc(NS(=O)(=O)c3c(F)cccc3F)c2F)n1 [Compound 74]
14 | > 1000 | 73.9 | CNc1nccc(-c2sc(-c3cncc(C(F)(F)F)c3)nc2-c2cccc(NS(=O)(=O)c3c(F)cccc3F)c2F)n1 [Compound 75]
15 | > 1000 | 19.1 | CNc1nccc(-c2sc(-c3cnccn3)nc2-c2cccc(NS(=O)(=O)c3c(F)cccc3F)c2F)n1 [Compound 76]
16 | > 1000 | 85.5 | CNc1nccc(-c2sc(-c3ccc(F)cn3)nc2-c2cccc(NS(=O)(=O)c3c(F)cc(F)cc3F)c2F)n1 [Compound 77]
17 | > 1000 | 11.8 | CC(C)Nc1nccc(-c2sc(-c3cncc(F)c3)nc2-c2cccc(NS(=O)(=O)c3c(F)cccc3F)c2F)n1 [Compound 78]
18 | > 1000 | 7.6 | O=S(=O)(Nc1cccc(-c2nc(-c3cncc(F)c3)sc2-c2ccnc(NCCO)n2)c1F)c1c(Cl)cccc1Cl [Compound 79]
19 | > 1000 | 6 | O=S(=O)(Nc1cccc(-c2nc(-c3cncc(F)c3)sc2-c2ccnc(NC3CC3)n2)c1F)c1c(Cl)cccc1Cl [Compound 80]
20 | > 1000 | 842 | Nc1nccc(-c2sc(-c3ccccc3)nc2-c2cccc(NS(=O)(=O)c3ccc4[nH]ncc4c3)c2F)n1 [Compound 83]
21 | > 1000 | 133 | Nc1nccc(-c2c(-c3cccc(NS(=O)(=O)c4c(F)cccc4F)c3F)nc(-c3ccccc3)n2O)n1 [Compound 84]

Row | IC50 (LCK protein) [nM] | IC50 (CSK protein) [nM] | SMILES
22 | 100 to 1000 | 33.2 | Nc1nccc(-c2[nH]c(-c3ccccc3)nc2-c2cccc(NS(=O)(=O)c3c(F)cccc3F)c2F)n1 [Compound 85]
23 | > 1000 | 89.2 | CCc1ccn2c(-c3ccnc(N)n3)c(-c3cccc(NS(=O)(=O)c4c(F)cccc4F)c3F)nc2c1 [Compound 92]
24 | > 1000 | 41.8 | Cc1cccn2c(-c3ccnc(N)n3)c(-c3cccc(NS(=O)(=O)c4c(F)cccc4F)c3F)nc12 [Compound 93]
25 | > 1000 | 98.6 | NC(=O)c1ccn2c(-c3ccnc(N)n3)c(-c3cccc(NS(=O)(=O)c4c(F)cccc4F)c3F)nc2c1 [Compound 94]
26 | > 1000 | 71.6 | CN(C)c1ccn2c(-c3ccnc(N)n3)c(-c3cccc(NS(=O)(=O)c4c(F)cccc4F)c3F)nc2c1 [Compound 95]
27 | > 1000 | 127 | Nc1nccc(-c2c(-c3cccc(NS(=O)(=O)c4c(F)cccc4F)c3F)nc3cc(C(=O)O)ccn23)n1 [Compound 96]
28 | > 1000 | 98.2 | CCOc1ccn2c(-c3ccnc(N)n3)c(-c3cccc(NS(=O)(=O)c4c(F)cccc4F)c3F)nc2c1 [Compound 97]
29 | > 1000 | 78.3 | CNc1nccc(-c2c(-c3cccc(NS(=O)(=O)c4c(F)cccc4F)c3F)nc3cc(OC)ccn23)n1 [Compound 98]
30 | > 1000 | 137 | COc1cc2nc(-c3cccc(NS(=O)(=O)c4c(F)cccc4F)c3F)c(-c3ccnc(N)n3)n2cc1Cl [Compound 100]
31 | > 1000 | 436 | N#Cc1ccn2c(-c3ccnc(N)n3)c(-c3cccc(NS(=O)(=O)c4c(F)cccc4F)c3F)nc2c1 [Compound 101]
32 | > 1000 | 96.5 | CNc1nccc(-c2c(-c3cccc(NS(=O)(=O)c4c(F)ccc(C)c4F)c3F)nc3c(F)cccn23)n1 [Compound 102]
33 | > 1000 | 51.8 | CNc1nccc(-c2c(-c3cccc(NS(=O)(=O)c4c(F)ccc(C)c4F)c3F)nc3cc(OC)ccn23)n1 [Compound 103]
34 | > 1000 | 134 | CC(C)Oc1ccn2c(-c3ccnc(N)n3)c(-c3cccc(NS(=O)(=O)c4c(F)cccc4F)c3F)nc2c1 [Compound 104]
35 | > 1000 | 400 | Nc1nccc(-c2c(-c3cccc(NS(=O)(=O)c4c(F)cccc4F)c3F)nc3cc(C(F)(F)F)ccn23)n1 [Compound 105]
36 | > 1000 | 91.7 | CNc1nccc(-c2c(-c3cccc(NS(=O)(=O)c4c(F)ccc(C)c4F)c3F)nc3ccc(F)cn23)n1 [Compound 106]
37 | > 1000 | 113 | CNc1nccc(-c2c(-c3cccc(NS(=O)(=O)c4c(F)ccc(C)c4F)c3F)nc3cc(F)ccn23)n1 [Compound 107]
38 | < 100 | 4.6 | O=S(=O)(Nc1cccc(-c2nn(C3CCCCC3)cc2-c2ccnc(Nc3ccc(N4CCOCC4)nc3)n2)c1F)c1c(F)cccc1F [Compound 109]
39 | > 1000 | 221 | Nc1nccc(-c2cn(C3CCCCC3)nc2-c2cccc(NS(=O)(=O)c3c(F)cccc3F)c2F)n1 [Compound 110]
40 | 100 to 1000 | 16.4 | Nc1nccc(-c2sc(N3CCCCC3)nc2-c2cccc(NS(=O)(=O)c3c(F)cccc3F)c2F)n1 [Compound 111]
41 | > 1000 | 23.8 | CNc1nccc(-c2sc(N3CCCC3=O)nc2-c2cccc(NS(=O)(=O)c3c(F)cccc3F)c2F)n1 [Compound 113]
42 | 100 to 1000 | 18.5 | CNc1nccc(-c2sc(NC)nc2-c2cccc(NS(=O)(=O)c3c(F)cccc3F)c2F)n1 [Compound 114]
